Data: publication PMC9381133 (Molecular Cancer Therapeutics, 2022)

Target: T1, CD73 (ecto-5′-nucleotidase) (Mus musculus, UniProt Q61503)
T1 sequence (Q61503 29-551): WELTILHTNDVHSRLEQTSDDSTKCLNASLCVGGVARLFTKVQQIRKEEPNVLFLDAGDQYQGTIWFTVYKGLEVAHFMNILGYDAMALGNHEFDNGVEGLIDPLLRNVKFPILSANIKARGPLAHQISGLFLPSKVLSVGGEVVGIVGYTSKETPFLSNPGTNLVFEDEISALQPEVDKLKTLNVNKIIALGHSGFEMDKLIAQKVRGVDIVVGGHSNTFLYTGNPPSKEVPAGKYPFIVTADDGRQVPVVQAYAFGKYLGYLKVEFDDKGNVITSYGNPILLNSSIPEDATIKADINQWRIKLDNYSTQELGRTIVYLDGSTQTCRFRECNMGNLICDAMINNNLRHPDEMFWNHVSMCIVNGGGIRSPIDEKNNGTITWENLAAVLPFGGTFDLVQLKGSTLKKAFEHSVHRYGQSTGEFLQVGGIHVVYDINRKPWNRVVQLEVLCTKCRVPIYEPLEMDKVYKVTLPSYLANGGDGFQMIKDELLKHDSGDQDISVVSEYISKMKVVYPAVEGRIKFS
Assay: […]5-AMP hydrolysis in B16F10 tumor homogenate, LC/MS of […]5-adenosine
Assay type: biochemical

C[C@H](Nc1cc(Cl)nc2c1cnn2[C@@H]1O[C@H](COP(=O)(O)CP(=O)(O)O)[C@@H](O)[C@H]1O)c1ccccc1F [AB680]
IC50: 0.704 nM
